Test results: patent US20170218375A1, “MORPHOLINOS, MORPHOLINO UPREGULATING, AND ASSOCIATED METHODS” (University of Utah Research Foundation, priority 2011, published 2017)

What was measured:
mbVEGFR2 mRNA = test: Real-time PCR of mbVEGFR2 mRNA after morpholino transfection of HUVECs; type: cell-based, human; details: GAPDH as internal control, compared with DPBS transfected HUVECs
Excerpt: (§1) In addition, two polyadenylation sites (AAUAAA) are found in intron13 (FIG. 1A). […] FIG. 1(a) illustrates a schematic design of anti-sense morpholino oligomers. FIGS. 1(b, c) show the results of mbVEGFR2 and sVEGFR2 mRNA expression quantified by real-time PCR after morpholino transfection. All results are normalized by GAPDH expression and compared with DPBS transfected HUVECs as 1. p: risk factor by two-tail student's t-test. *: p<0.05, **p<0.01, ***p<0.001 compared with DPBS transfected HUVECs; n=6 for all groups; Error bar is ±s.e.m. It is thus concluded that human polyadenylation of sVEGFR2 mRNA occurs in intron13, and thus the present disclosure examines whether disruption of splicing between exon13-exon14 upregulates sVEGFR2.
(§2) It was discovered that VEGFR2_MOe13 downregulates mbVEGFR2 mRNA by 40% (p<0.05), while VEGFR2_MOi13 upregulates mbVEGFR2 mRNA by 2.5-fold (p<0.01) compared with DPBS transfected HUVECs.
(§3) Each morpholino oligomer was purchased from Gene Tools (Philomath, Oreg.). […] The cells were washed three times and fluorescence was detected by a FACScan Analyzer (BD Biosciences, San Jose, Calif.). […]
(§4) cDNAs were synthesized from 400 ng total RNA using Omniscript RT kit (Qiagen, Valencia, Calif.) and Oligo-dT primer(dT20) according to the manufacturer's instructions. Real-time PCR was performed using QuantiTect SYBR Green PCR Kit (Qiagen, Valencia, Calif.) and 1 μl of cDNA. […]

sVEGFR2 mRNA [1] = test: Real-time PCR of sVEGFR2 mRNA after morpholino transfection of HUVECs; type: cell-based, human; details: GAPDH as internal control, compared with DPBS transfected HUVECs, p<0.001
Excerpt: as §1, §2, §3, §4

sVEGFR2 mRNA [2] = test: RT-PCR analysis of sVEGFR2 mRNA from HUVECs two days after morpholino transfection; type: cell-based, human
Description: To limit the possibility of genomic contamination, VEGFR2exon10_F (designed in exon10) and VEGFR2_R (designed in intron13) were used for primers to detect sVEGFR2.
(§5) Each morpholino oligomer was purchased from Gene Tools (Philomath, Oreg.). The sequences of each morpholino oligomer and primers for PCR are listed in supplemental Table. HUVECs (Lonza, Walkersville, Md.) were cultured in EBM with EGM SingleQuot Kit supplements and growth factors according to the manufacturer's instructions (Lonza, Walkersville, Md.). MS-1 cells, a mouse endothelial cell line (ATCC, Manassas, Va.) were cultured in 5% FBS/DMEM. Morpholino oligomers were delivered to the nucleus by nucleofection (Amaxa, Gaithersburg, Md.) with a Basic Nucleofector Kit for Primary Mammalian Endothelial Cells (Amaxa, Gaithersburg, Md.) using program A-034 for HUVEC and MS-1 cells. For each nucleofection, 1×10^6 cells were used and plated on a 6-well plate. After 2 days of culture, cells were trypsinized and total RNA was extracted using a RNeasy mini kit (Qiagen, Valencia, Calif.) with DNaseI treatment. Detection of mbVEGFR2 was achieved by flow cytometry. […] The cells were washed three times and fluorescence was detected by a FACScan Analyzer (BD Biosciences, San Jose, Calif.). […]

mbVEGFR2 protein [3] = test: Flow cytometry analysis of mbVEGFR2 protein on cell surfaces of transfected HUVECs; type: cell-based, human; details: flow cytometry three days after nucleofection, DPBS 83.3%
Description: (§6) Next, mbVEGFR2 protein expression by western blot was examined. VEGFR2_MOe13 or a combination of VEGFR2_MOe13 and VEGFR2_MOi13 reduced mbVEGFR2 protein expression compared to DPBS and STD_MO. […] (f) HUVECs stained with only secondary antibody were used as a negative control. […] To confirm sVEGFR2 protein expression, western blot from culture medium of morpholino transfected HUVECs was performed using an antibody recognizing the extracellular domains of VEGFR2 (FIG. 5). […] It is known that mbVEGFR2 can be glycosylated, thus increasing the molecular weight from 150 kD to 230 kD. In addition, sVEGFR2 has been detected at 160 kDa, although it has not reported whether this was derived from alternative polyadenylation or proteolytic cleavage from mbVEGFR2. Based on this information, it is likely that sVEGFR2 protein, upregulted following morpholino treatment, is glycosylated with an observed molecular weight of 150 kDa.
Each morpholino oligomer was purchased from Gene Tools (Philomath, Oreg.). The sequences of each morpholino oligomer and primers for PCR are listed in supplemental Table. HUVECs (Lonza, Walkersville, Md.) were cultured in EBM with EGM SingleQuot Kit supplements and growth factors according to the manufacturer's instructions (Lonza, Walkersville, Md.). […] The cells were washed three times and fluorescence was detected by a FACScan Analyzer (BD Biosciences, San Jose, Calif.). […]

sVEGFR2 protein = test: Western blot of culture medium of morpholino transfected HUVECs against VEGFR2 extracellular domain; type: cell-based, human; details: three days, antibody to VEGFR2 extracellular domains
Description: as §6
(§7) After nucleofection, cells were cultured in a 75 cm^2 flask for three days without changing the medium. After three days the media was collected and cell debris was removed by centrifugation. Trichloroacetic acid (20% (w/v), Fisher Scientific, Pittsburgh, Pa.) was added to concentrate the supernatant (final concentration of trichloroacetic acid was 10%). Cells were incubated in trichloroacetic acid for 30 minutes on ice and then centrifuged at ×12000 g 4° C. for 5 minutes. […]

sVEGFR2 mRNA [4] = test: Long-range 3'RACE from morpholino transfected HUVECs; type: cell-based, human
Description: To determine the 3′UTR of sVEGFR2 mRNA induced by morpholinos, long-range 3′RACE was performed (FIG. 5C). A strong band (˜1600 bp) was detected from VEGFR2_MOe13 and the combination of VEGFR2_MOe13 and VEGFR2_MOi13 transfected HUVECs. Based on the sequence of this band, sVEGFR2 mRNA utilizes a polyadenylation site located in 1403-1408 nt range of intron13 (FIG. 6B). […] These sequence components are similar to typical polyadenylation signals, which contain a cleavage site 10-35 nt downstream of AAUAAA and a GU-rich region 14-70 nt downstream of AAUAAA. […] Corneal tissue is known to predominantly express sVEGFR2.
cDNA was synthesized from total RNA extracted from morpholino transfected HUVEC using a cloning_R1 (Table 1). PCR was performed using a LongRange PCR Kit (Qiagen, Valencia, Calif.). PCR conditions: 93° C. for 3 minutes, 35 cycles of 93° C. for 15 seconds, 55° C. for 30 seconds and 68° C. for 6 minutes using VEGFR2_F1 and cloning_R2. After 1% agarose gel electrophoresis, specific bands were excised and subjected to DNA sequencing. To determine endogenous 3′UTR of sVEGFR2 mRNA, total RNA extracted from one human cornea which was obtained from the Utah Lions Eye Bank. cDNA was synthesized with the same above method, and PCR was performed using cloning_F(1042-1061) which is designed in human VEGFR2 intron13 and cloning_R2.

mbVEGFR2 protein [5] = test: Western blot for mbVEGFR2 from morpholino transfected HUVECs; type: cell-based, human; details: compared to DPBS and STD_MO
Description: as §6, §7

[6] = tested on: laser-induced choroidal neovascularization (CNV); test: Laser-induced choroidal neovascularization (CNV) in mouse; type: in vivo; details: 2 μl intravitreously day 1 and day 4: 100 ng/μl moVEGFR2_MOe13, 500 ng/μl anti-mouse VEGF-A IgG, 2 ng/μl SU1498, CNV volume day 7
Description: It was also examined whether moVEGFR2_MOe13 inhibits laser-induced choroidal neovascularization (CNV). Each morpholino or DPBS was injected intravitreously on day 1 and day 4 after laser photocoagulation, and laser CNV volumes were examined on day 7. […] Vessel endothelial cells were stained with Alexa fluor488 conjugated isolectin GS-IB4. […] After photocoagulation, on day 1 and day 4, 2 ul of 100 ng/μl STD_MO, 500 ng/μl Goat IgG (AB-108-C, R&D Systems, Minneapolis, Minn.), 100 ng/μl moVEGFR2_MOe13, 500 ng/μl Goat Anti-mouse VEGF-A IgG (AF-493-NA, R&D Systems, Minneapolis, Minn.) or 2 ng/μl SU1498 (572888, EMD chemicals, Gibbstown, N.J.) was injected intravitreously. On day 7, CNV volumes were measured by confocal microscope. n=14-20 for each group. Risk factors (p-value) were calculated by two-tail student's t-test (*: p<0.05, **p<0.01). Error bar is ±s.e.m.
as §5

Molecule	upregulation of mbVEGFR2 mRNA (mbVEGFR2 mRNA; p<0.01) [fold]	increase of sVEGFR2 mRNA (sVEGFR2 mRNA [1]) [fold]	detection of sVEGFR2 mRNA by RT-PCR (sVEGFR2 mRNA [2])	mbVEGFR2 positive cells (mbVEGFR2 protein [3]) [%]	sVEGFR2 protein in culture medium by western blot (sVEGFR2 protein)	3'RACE band (~1600 bp) corresponding to sVEGFR2 mRNA using the polyadenylation site in intron13 (sVEGFR2 mRNA [4])	downregulation of mbVEGFR2 mRNA (mbVEGFR2 mRNA; p<0.05) [%]	mbVEGFR2 protein expression by western blot (mbVEGFR2 protein [5])	suppression of CNV compared with anti-VEGF-A IgG and SU1498 (FIG. 9) [6]
5′-CCACACGCTctagacacacaaaaag-3′ (antisense CCACACGCTCTAGACACACAAAAAG; all phosphorodiamidate morpholino (PMO)) [VEGFR2_MOi13, antisense morpholino oligomer corresponding to the junction of intron13-exon14 of human VEGFR2]	2.5	4.4	detected	82.5	could not detect	did not show a strong band	–	–	–
5′-gatccagaattgtctccctacCTAG-3′ (antisense GATCCAGAATTGTCTCCCTACCTAG; all phosphorodiamidate morpholino (PMO)) [VEGFR2_MOe13, antisense morpholino oligomer corresponding to the junction of exon13-intron13 of human VEGFR2]	–	17	detected	40.7	150 kD bands were detected	strong band	40	reduced	–
CC(C)c1cc(/C=C(\C#N)C(=O)NCCCc2ccccc2)cc(C(C)C)c1O [SU1498, reference compound]	–	–	–	–	–	–	–	–	inhibitory effects
